The data set is described as follows: Molar enthalpy of transition or fusion. The note with it: Crystal 1; Adiabatic calorimetry.

± gives the expanded uncertainty stated by the source.

As for `ON=C1CCCCC1` [cyclohexanone oxime], the “Molar enthalpy of transition or fusion” value is 2.977 ± 0.00454 kcal/mol.

The values above are taken from the NIST ThermoML archive (doi:10.1021/je700546r).
